In patent US9303069B2, “Peptides for treating cancer” (University of Mississippi Medical Center, priority 2014, dated 2016):
Ends that are not written are not given here.

What was measured:
HOSE cells = type: cell-based, human; conditions: 48 h
Experimental: (§1) Thus, a peptide (hereafter IRIS peptide) composed of a cell/nucleus penetrating signal (FIG. 26) fused to BRCA1-IRIS intron 11 (FIG. 26) was synthesized. Equal numbers of HOSE, HOSE/IRIS, SKOV3, OVCAR3, OVCAR420 and OV-90 cells were grown in the presence of increasing concentrations of IRIS peptide for 48 hours.
(§2) Cell viability measurement. Cell viability under different experimental conditions was determined using the MTS assay […]. Briefly, SKOV3, OVACAR3, HOSE and HOSE/IRIS cells (2.5×10^4 cells per well) were seeded in 96 well plates and incubated overnight at 37° C. in 10% humidified CO2 atmosphere in varying concentrations of IRIS peptide, or inhibitors of ErbB2 (CP-724714), EGFR (Erlotinib), TrkB (K252a), JNK (SP600125), p38 (SB203580), ERK (PD98059) and PI3′K/AKT (LY294002) inhibitors for 24 hours at 37° C. Cell Titer 96® Aqueous (Promega, Madison, Wis., USA) was used to measure viability following manufactures instructions. Cell viability (%) was expressed as a ratio to control cells×100. Growth inhibition was also determined by manually counting cells in five different microscopic fields. Change in cell numbers (fold) was expressed as a ratio to control cells×100. All experiments were done in at least triplicates, three different times. * is p≦0.05, ** is p≦0.001 and *** is p≦0.0001.

HOSE/IRIS cells = type: cell-based, human; conditions: 48 h
Experimental: as §1, §2

OV-90 cells = type: cell-based, human; conditions: 48 h
Experimental: as §1, §2

OVCAR3 cells = type: cell-based, human; conditions: 48 h
Experimental: as §1, §2

OVCAR420 cells = type: cell-based, human; conditions: 48 h
Experimental: as §1, §2

BRCA1-IRIS = BRCA1-IRIS expression in ovarian cells (Western analysis); type: cell-based, human; conditions: all ovarian cell lines; 10 μM of IRIS peptide for 24 hours
Source text: At these low concentrations of cisplatin BRCA1-IRIS expression was induced in HOSE cells and remained high in HOSE/IRIS cells (FIG. 17). […] Cell lines expressing the lowest levels of BRCA1-IRIS (i.e.

SKOV3 cells = experiment: Hanging drops (anchorage independent growth), SKOV3; type: cell-based, human; conditions: IRIS peptide 5 μM versus scrambled peptide
Experimental: Hanging drops: In this technique, the anchorage independent growth ability of cells was measured.
Hanging Drop Method. Single-cell suspensions were made from monolayer cultures in growth medium. Cell density used was 250 cells per drop (20 μl) of medium dispensed onto a 6 cm dish (Corning Life Sciences, Union City, Calif.). The dish was then inverted, the drops were held in place by surface tension, and cells accumulated at the free liquid-air interface. The dishes were placed on a tray with water and incubated under standard conditions. Hanging cell-drops formed was analyzed using microscope. All experiments were done in triplicate.

[1] = tested on: HME, MDA-MB-231, MDA-MB-468 and BT549 cells; experiment: Survival of breast cell lines after siRNA transfection followed by IRIS peptide; type: cell-based, human; conditions: siRNA 48 hours, then IRIS peptide 24 hours
Experimental: To rule out any off target effect of this peptide, HME, MDA-MB-231, MDA-MB-468 and BT549 cells were first transfected with luciferase (siLuc) or BRCA1-IRIS (siIRIS) siRNA for 48 hours before they were exposed to increasing concentrations of IRIS peptide for an additional 24 hours. As would be expected from treatments that target the same target, whether inactivating BRCA1-IRIS (FIG. 81) or depleting its mRNA first (FIG. 82) the percentages of cells remained following these treatments were identical (see FIG. 83).
Small interfering RNA transfections. Specific siRNAs for luciferase (negative control) or human BRCA1-IRIS were obtained from Ambion, USA. Transfection was done using Oligofectamine™ reagent (GibcoBRL Inc, USA) and standard protocol (for reference see ElShamy and Livingston, 2004). Knockdwon of the target protein was usually confirmed by Western blotting 72 hours later. Cell viability was evaluated by MTS or by manual counting after 72 hours of siRNA transfection or combined with paclitaxel (24 hour exposure). Each experiment was done in triplicate, repeated three separate times

[2] = tested on: HME/IRIS, MDA-MB-231 and MDA-MB-468 cells; experiment: Acini formation in matrigel-coated wells, breast cell lines; type: cell-based, human; conditions: day 10; peptide added every third day
Source text: Next, it was considered whether BRCA1-IRIS depletion or inactivation could impact the aggressive behavior in breast cancer cell lines. BRCA1-IRIS silenced HME, HME/IRIS, MDA-MB-231 and MDA-MB-468 cells were layered on matrigel-coated wells. Moreover, parental cell lines were layered on the matrigel and grown in the presence of scrambled or IRIS peptide (added every third day). […] On day 10, HME acini became slightly bigger but remained round (FIG. 89, 1st column and FIG. 90). Acini formed by HME/IRIS, MDA-MB-231 and MDA-MB-468 were large/non-round on day 10 (FIG. 89, 1st column and FIGS. 90 and 91). BRCA1-IRIS depletion (FIG. 89, 2nd column and FIG. 91) or inactivation (FIG. 89, 3rd column and Suppl. FIG. 91) reverted this phenotype back to near normal “small/round” acini. Quantitatively, BRCA1-IRIS overexpression led to >3-fold increase in HME cells aggressiveness, and its depletion or inactivation reduced that phenotype in tumor cells by >3 fold (FIG. 90 and FIG. 91).

HME/IRIS cells = conditions: 48 h
Experimental: (§3) All cell lines were exposed to increasing concentrations of paclitaxel and BRCA1-IRIS expression, and cells' viability was then measured.
(§4) Cell viability measurement. Cell viability under different experimental conditions was determined using the MTS assay. Briefly, cells (2.5×10^4 cells per well) were seeded in 96-well plates and incubated overnight at 37° C. in 10% humidified CO2 atmosphere. The next day they were incubated with varying concentration of peptide, or inhibitors for 24 hours at 37° C. Cell viability was determined using cell Titer 96® Aqueous (Promega, Madison, Wis., USA) following manufacturer's instructions. Cell viability (%) was expressed as a ratio of treated cells to control cells×100. […] Each experiment was done in triplicate, repeated three separate times.

BT549 cells = conditions: 48 h
Experimental: as §3, §4

What does the source list for “RRIRPRPPRLPRPRPRPLPFPRPGIGTRFLCLPQSIYRSELNVYAFGEHILQISKYS [IRIS peptide]”?
IC50 (HOSE cells): ~1000 nM; IC50 (HOSE/IRIS cells): ~10 µM; IC50 (OV-90 cells): ~5 µM; IC50 (OVCAR3 cells): ~10 µM; IC50 (OVCAR420 cells): ~1000 nM; BRCA1-IRIS expression (BRCA1-IRIS): significant reduction in BRCA1-IRIS expression; ability to form hanging drops (SKOV3 cells): complete loss of ability; percentages of cells remaining, IRIS peptide after siIRIS versus after siLuc [1]: identical; reduction of aggressive (large/non-round) acini phenotype in tumor cells [2]: > 3 fold; IC50 (HME/IRIS cells): ~5 µM; IC50 (BT549 cells): ~5 µM
